{"source": "patent US20180193294A1", "about": "“Dehydroabietic acid (DHAA) derivatives for use as ion channel openers” (priority 2015, published 2018)", "target": "3R Shaker K channel (Drosophila melanogaster, UniProt P08510, A359R/M356R)", "sequence (P08510 whole entry M356R/A359R)": "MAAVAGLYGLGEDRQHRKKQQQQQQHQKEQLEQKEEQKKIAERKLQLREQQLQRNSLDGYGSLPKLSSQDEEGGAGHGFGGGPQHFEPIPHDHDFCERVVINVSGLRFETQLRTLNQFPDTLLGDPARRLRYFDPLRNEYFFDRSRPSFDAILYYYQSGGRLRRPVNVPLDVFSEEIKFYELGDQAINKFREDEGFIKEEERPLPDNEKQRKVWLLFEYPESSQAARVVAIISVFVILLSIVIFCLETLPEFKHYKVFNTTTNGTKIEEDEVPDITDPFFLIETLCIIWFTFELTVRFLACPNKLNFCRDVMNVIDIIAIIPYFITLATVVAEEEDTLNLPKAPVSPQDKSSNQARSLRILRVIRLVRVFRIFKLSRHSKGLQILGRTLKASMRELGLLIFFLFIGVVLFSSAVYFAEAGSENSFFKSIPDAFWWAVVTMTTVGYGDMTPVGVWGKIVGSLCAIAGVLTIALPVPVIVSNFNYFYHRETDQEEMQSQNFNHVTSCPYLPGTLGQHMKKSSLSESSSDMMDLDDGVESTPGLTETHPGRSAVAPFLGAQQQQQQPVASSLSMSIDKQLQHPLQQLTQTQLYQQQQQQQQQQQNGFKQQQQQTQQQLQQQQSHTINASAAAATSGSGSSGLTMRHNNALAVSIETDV", "test": "G(V) shift of 3R Shaker K channel stably expressed in CHO-K1 cells, whole-cell patch clamp", "assay_type": "cell-based", "conditions": "10 μM, pH 7.4", "excerpt": "All animal experiments were approved by the local Animal Care and Use Committee and followed international guidelines. A modified Shaker H4 channel^30, with removed N-type inactivation (ShH4IR)^31, here called the wild type (WT) channel, was expressed in oocytes. In addition, a modified 3R Shaker K channel where two introduced positive charged arginines (M356R and A359R) in addition to one native arginine (R362) makes the channel more sensitive to DHA^16, was expressed in oocytes and in a CHO—K1 stable cell line.\nFor the modified 3R Shaker K channel a stable cell line was generated. The construct was cloned into the pcDNA3 vector. CHO—K1 cells were plated into T75 culture flasks and grown without penicillin/streptomycin. […]\nwhere IK is the average current from the steady-state phase at the end of each 100-ms pulse, V is the membrane voltage, and Vrev is the reversal potential for K^+, (set to −80 mV for the oocytes, and calculated to be −89 mV for the CHO—K1 cells).\nwhere A is amplitude of the curve, V is the absolute membrane voltage, V1/2 is the midpoint, s is the slope and n is an exponent set to 4^17. The compound-induced G(V) shift was determined at the 10% level of the maximum conductance in control solution^17. The compound-induced G(V) shift in CHO—K1 was quantified by subtracting the control V1/2 from the compound V1/2 when n was set to 1."}
{"compound": "CC(C)c1ccc2c(c1)C(C(=O)O)CC1[C@](C)(C(=O)O)CCC[C@]21C", "note": "(stereo partly shown) [Wu35]", "values": [{"measurement": "G(V) shift in CHO cells", "value": "very poor shifter"}]}
